One compound from patent publication US20230151432A1, “KIF18A INHIBITORS FOR TREATMENT OF NEOPLASTIC DISEASES” (AMGEN INC., priority 2020, published 2023) can be followed below.

Series [1] can be described thus: Tolerability (body weight, blood counts) in tumor-bearing nude mice. The following applies: 18 days. It is filed as in vivo, mouse. The protocol:
Female athymic nude mice were injected with 5×10^6 cells in 0.1 mL subcutaneously in the right flank. After tumors were established (average tumor volume of 150 mm^3), animals were randomized into 4 treatment groups (vehicle alone, KIF18A inhibitor at 10, 30, or 100 mg/kg) with 10 animals per group and treated orally once per day (PO, QD) starting on day 25 post-tumor implantation. Tumor measurement was calculated from the length, width and height of tumors measured with a PRO-MAX electronic digital caliper (Japan Micrometer Mfg. Co. LTD). The tumor volume was calculated as [L×W×H] and expressed in mm^3. Tumor volume and animal body weight measurements were determined twice per week (study start day 25, study end day 45). A single mouse was removed from the study (KIF18A inhibitor 30 mg/kg group) due to abdominal distention, a finding likely unrelated to compound.
Data was plotted using GraphPad Prism software (V7.0.4), tumor volume and body weight data are expressed as means plus or minus standard error of the mean and plotted as a function of time. Statistical significance of observed differences between growth curves were calculated using SLACR package (v.1.0.3). Statistical significance for tumor regressions were performed by paired Student's t-Test on the initial and final tumor volumes with significant tumor regression p-values (***p≤0.0001) for all three KIF18A inhibitor treatment groups. KIF18A inhibitor dose 10 mg/kg (81% regression, 5 of 10 tumor-free), 30 mg/kg (98% regression, 8 of 9 tumor-free), and 100 mg/kg (97% regression, 7 of 10 tumor-free).
Female athymic nude mice were injected with 5×10^6 OVCAR-8 cells in 0.1 mL subcutaneously in the right flank. […] Tumor volume and animal body weight measurements were determined twice per week (study start day 25, study end day 47). Tumor measurements, formulas, and regression analysis as described above for FIGS. 5A-5B. Data was plotted using GraphPad Prism software (V7.0.4), tumor volume and body weight data are expressed as means plus or minus standard error of the mean and plotted as a function of time. Statistical significance of observed differences between growth curves were calculated using SLACR package (v.1.0.3).
(§1) Data was graphed using GraphPad Prism 7.05.
(§2) Tumor volume and body weight assessment performed as described above. After the final dose on day 36, plasma pharmacokinetic analysis was performed as described above. All data analysis was performed as described above.
(§3) Animals were dosed IP daily with vehicle alone, C9 (50 or 100 mg/kg), or C12 (25 or 50 mg/kg). […] Tumor volume and body weight assessment performed as described above. After the final dose on day 46, plasma pharmacokinetic analysis was performed as described above except blood was drawn by retro-orbital bleed method.

In a further series the test system is BT-549 TNBC cells. The series is described as follows: Western blot and cGAS/γH2A.X immunostaining (Example 8). The following applies: 0.2 μM, 48 hours. It is filed as cell-based, human. As for the experimental part:
In order to analyze the effects on mitosis, BT-549 TNBC cells were seeded into 6-well plates at a density of 100,000 per well in 3 replicate wells in 4 mL of complete growth media. The next day, cells were treated with DMSO, KIF18A inhibitor #1 (Compound C11, 0.5 μM), or KIF18A inhibitor #2 (Compound C9, 0.01 μM) in 4 mL of complete media at a final DMSO concentration of 0.5%. After 48 hours, cell lysates were prepared for each treatment group (combined media and cells from 3 wells) using Minute™ Total Protein Extraction kit (SD-001, Invent Biotechnologies) lysis conditions according to manufactures protocol, supplemented with protease inhibitor cocktail (cOmplete™, Roche) and phospatase inhibitors (PhosphoStop, Roche). Primary antibodies included rabbit anti-p-Histone H3 (serine-10) (06-570, Millipore, 1: 2000), mouse anti-γH2A.X (serine-139) (05-636, Millipore, 1: 2000), mouse anti-cleaved-PARP (cl-PARP) (#51-900017, BD Pharmingen, 1:500), mouse anti-BubR1 (612503, BD Pharmingen, 1:5000), mouse anti-total HEC1 (ab3613, ABCAM, 1: 1000), rabbit anti-pHEC1(serine-55) (GTX70017, Genetex, 1: 500), and rabbit anti-GAPDH (2118, Cell Signaling, 1:10,000).
Also, cGAS and γH2A.X (serine-139) immunostaining in BT-549 TNBC cells was carried out. […] Wide-field images were captured using 40×objective on upright Nikon Eclipse NI-E epi-fluorescence microscope running Elements software.

Series [2] in a line: Terminal plasma pharmacokinetic analysis in tumor-bearing mice. It counts as in vivo, mouse. The protocol:
as §1, §2, §3

For another series, the system named is OVCAR-3 tumors. Description: OVCAR-3 Tumor Xenograft Efficacy Study (IP). The following applies: 100 mg/kg IP once daily for 18 consecutive days.
Setting [3] is: OVCAR-3 study, C9 100 mg/kg, C12 25 mg/kg IP daily.

Experimental for OVCAR-3 tumors: Mice were injected with human OVCAR-3 cells (5.0×10^6) subcutaneously in the right flank. Animals with established tumors were randomized into four groups (n=10 per group) with average tumor volume of 130 mm^3. […] Treatment started on day 24 post-tumor implantation and treatment terminal on day 42. Tumor volumes and body weights were recorded twice per week using a digital caliper and analytical lab scale, respectively. […] The percentage of tumor growth inhibition (% TGI) was calculated as % TGI relative to vehicle control: % TGI=100−[(Treated−Initial Volume)/(Control−Initial Volume)×100]. The percentage of tumor regression (% TR) was calculated as % TR compared final tumor volume to the initial tumor volume: % TR=100−[(Final Volume)/(Initial Volume)×100]. Data was graphed using GraphPad Prism 7.05. Statistical analysis was performed on treatment groups for tumor growth and blood counts using repeated measures ANOVA and one-way ANOVA, respectively, followed by Dunnett's multiple comparisons test.

Broadly, the AUC is concentration integrated over time. High values mean more exposure, low ones less exposure. Take `CC(C)(C)NS(=O)(=O)c1cccc(NC(=O)c2ccc(S(=O)(=O)NC(C)(C)C)cc2N2CCC3(CC2)CC3)c1` [Compound C9, 4-(N-(tert-butyl)sulfamoyl)-N-(3-(N-(tert-butyl)sulfamoyl)phenyl)-2-(6-azaspiro[2.5]octan-6-yl)benzamide]: the “tolerability (body weight)” value in series [1] (CAL-51 study, C9 100 mg/kg, C12 25 mg/kg IP daily) is reported as “well-tolerated”; in series [1] (OVCAR-8 study, C9 50 or 100 mg/kg, C12 25 or 50 mg/kg IP daily), “well-tolerated”. The “body weight loss or changes in blood counts” value in series [1] (setting [3]) is listed as “no evidence of body weight loss or changes in blood counts”. For the same compound, the tolerability result in series [1] (setting [3]) is on record as “well-tolerated”. In addition, the “cGAS and γH2A.X staining of cytoplasmic micronuclei” value in the series on BT-549 TNBC cells is “increase in DNA damage and cGAS positive micronuclei”. In addition, in series [2] (OVCAR-3, CAL-51, OVCAR-8 studies), the “PK profiles across studies” value was “comparable across studies”. For the same compound, the AUC in series [2] (nude, mouse, plasma, OVCAR-3 study, 100 mg/kg IP, after the final dose) came out at 130 µM·h. In the series on OVCAR-3 tumors, the tumor regression was found to be 73%.
